Laboratory results as given in patent US20220402917A1, “COMPOUND AS SMALL MOLECULE INHIBITOR PD-1/PD-L1 AND APPLICATION THEREOF” (MEDSHINE DISCOVERY INC., priority 2019, published 2022).

Columns and labels:
[1] = molecular target: T1, PD-L1 in MDA-MR-231 cells (Homo sapiens, UniProt Q9NZQ7); test: Effect on expression level of PD-L1 in MDA-MR-231 cells (FACS); format: cell-based; conditions: 24 hours incubation, FACS detection of cell surface PD-L1
T1 construct: endogenous in cells; host or cells: MDA-MB-231
Protocol: Experimental Example 2: Using MDA-MR-231 Cells to Detect the Effect of Compounds on the Expression Level of PD-L1
The use of a triple-negative breast cancer cell line (MDA-MB-231) is an indirect method to assess PD-L1 endocytosis. PD-L1 molecules on the cell surface can be degraded by lysosomal and proteasome pathways, and small molecule inhibitors are added to induce PD-L1 endocytosis. After co-incubating small molecules with MDA-MB-231 cells for 24 hours, flow cytometry (Fluorescence-activated Cell Sorting, FACS) is used to detect the content of PD-L1 on the cell surface, which can indirectly reflect the effect of small molecule-induced PD-L1 endocytosis. Flow cytometry (FACS) is used to detect the effect of the compounds of the present disclosure on the expression level of PD-L1 in MDA-MR-231 cells.
Phosphate buffer (DPBS), 1640 medium, penicillin-streptomycin, fetal bovine serum, non-essential amino acids, 2-hydroxy-1-ethanethiol (2-ME), human interferon γ, LIVE/DEAD staining solution, staining buffer, fixation buffer, 0.25% trypsin, EDTA, anti-human PD-L1, anti-human PD-L1 isotype.
1640 complete medium preparation: 50 mL of fetal bovine serum, 5 mL of non-essential amino acids, 5 mL of penicillin-streptomycin and 0.5 mL of 2-hydroxy-1-ethanethiol were added to 439.5 mL of 1640 medium, and evenly mixed.
10 mM EDTA preparation: 1 mL of 0.5M EDTA was added to 49 mL of DPBS, and evenly mixed.
1) MDA-MB-231 cell counting and plating: The culture flask was taken out, the medium was removed and the culture flask was rinsed once with DPBS. After the culture flask was rinsed, 3 mL of 0.25% trypsin was added to the culture flask and the culture flask was placed in a 37° C. incubator for 1.5 min. The culture flask was taken out, 9 mL of 1640 complete medium was added to stop the reaction, the cells was transferred to a 50 mL centrifuge tube, and centrifuged at 1000 rpm for 5 min at 37° C. An appropriate volume of medium was added to re-suspend the cells according to the number of cells, and the number of cells was counted with a cell counter. The cell concentration was adjusted to 5×10^5 cells/mL with medium. Planking: A volume of 200 μL of cell suspension was added to each well of a 96-well plate, ensure that the number of cells in each well was 1×10^5. The cells were incubated overnight in an incubator. 2) Drug incubation: 100-fold dilution of compounds were prepared, and the drug was subjected to a 5-fold gradient dilution. 2 μL of each 100-fold dilution of compounds were added to each well. The cells were incubated in an incubator at 37° C. for 24 hours. 3) PD-L1 cell staining and FACS detection: the culture plate was taken out and the supernatant medium was discarded. The cells were washed once with 200 μL 1×PBS. 100 μL of EDTA (final concentration of 10 mM) was added to the cell suspension, and the cell suspension was treated at 37° C. for 10 min. Then after the cell suspension was centrifuged at 1500 rpm for 5 min, the cell suspension was washed once with 200 μL of staining solution. Staining: anti-human PD-L1 (2 μL per well) and LIVE/DEAD staining solution (1:1000) were diluted in staining solution, 50 μL of the staining solution was added to each well, and the staining was conducted at 4° C. for 30 min. Then the solution was washed twice with 200 μL of staining solution. Fixation: 100 μL of fixing solution was added to each well, the fixation was conducted at 4° C. for 15 min. The solution was then washed twice with 200 μL of staining solution, and 150 μL of solution was added to re-suspend the cells, followed by FACS detection.
Table 2 provides the effects of the compounds of the examples of the present disclosure on the expression level of PD-L1 in MDA-MR-231 cells.

[2] = molecular target: T2, PD1/PD-L1 (Homo sapiens, UniProt Q9NZQ7); test: PD-1/PD-L1 homogeneous time-resolved fluorescence (HTRF) binding experiment; set-up: purchased BPS Biosciences; conditions: HTRF (TR-FRET), PD-L1-biotin, PD1-Eu
Source text: Experimental Example 1: PD-1/PD-L1 Homogenouse Time-Resolved Fluorescence (HTRF) Binding Experiment
When the PD-1 molecule as the donor is very close to the PD-L1 molecule as the acceptor, the donor molecule will transfer the energy to the receptor molecule, which in turn causes the receptor molecule to emit fluorescence. The ability of small molecules to prevent the binding of PD-L1 to PD-1 can be tested by detecting the intensity of fluorescence. A homogeneous time-resolved fluorescence (HTRF) binding experiment is used to detect the ability of the compounds of the present disclosure to inhibit the binding of PD-1/PD-L1.
PD1/PD-L1 TR-FRET detection kit was purchased from BPS Biosciences. Nivo multi-label analyzer (PerkinElmer).
PD1-Eu, Dye-labeled acceptor, PD-L1-biotin and compounds to be tested were diluted with the buffer in the kit. The compounds to be tested were subjected to 5-fold dilution to eight concentration gradients with a row gun. That is, from 40 μM to 0.5 nM, the DMSO concentration was 4%, and a double-well experiment was set up. 5 μL of inhibitor with each concentration gradient were added to the microwell plate, and 5 μL buffer containing 4% DMSO and 5 μL PD-L1-biotin (PD-L1-biotin) (60 nM) were added into well with the maximum signal (Max) and the well with the minimum signal (Min), only 5 μL of buffer was added to the well with the minimum signal (Min), and the incubation was conducted at 25° C. for 20 minutes. After the incubation was completed, 5 μL of diluted PD1-Eu (10 nM) and […] were added to each well. The reaction system was placed at 25° C. for 90 minutes. The TR-FRET signal was read by a multi-label analyzer after the reaction was completed.
(§1) Using the equation (sample−Min)/(Max−Min)×100% to convert the raw data into inhibition rate, and the IC50 value can be obtained by curve fitting with four parameters (obtained from log(inhibitor) vs. response—Variable slope mode in GraphPad Prism). Table 1 provides the inhibitory activity of the compounds of the examples of the present disclosure on PD1/PD-L1 binding
Target sequence in this assay (Q9NZQ7 19-239 limits assumed): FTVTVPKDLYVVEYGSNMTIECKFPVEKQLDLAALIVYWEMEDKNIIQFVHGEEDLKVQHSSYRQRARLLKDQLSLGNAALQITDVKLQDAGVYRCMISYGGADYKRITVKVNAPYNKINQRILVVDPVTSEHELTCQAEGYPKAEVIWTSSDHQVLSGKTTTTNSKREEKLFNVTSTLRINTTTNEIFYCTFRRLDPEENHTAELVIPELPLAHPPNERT

[3] = molecular target: T2, PD1/PD-L1; test: NFAT activity test (TCR Activitor/PD-L1 CHO cells with PD-1/NFAT Reporter-Jurkat cells); format: cell-based; set-up: host or cells: TCR Activitor/PD-L1 CHO cells; PD-1/NFAT Reporter-Jurkat cells; conditions: TCR Activitor/PD-L1 CHO cells + PD-1/NFAT Reporter-Jurkat cells, 5 hours, luciferase; for IC50: read-out: IC50, inhibitory activity on PD1/PD-L1 binding (NFAT activity test)
Source text: Experimental Example 3: NFAT Activity Test
The engineered T cell expresses PD-1 molecules and T cell receptor (TCR) on the surface, which can activate the NFAT signaling pathway of T cells after co-culturing with engineered antigen presenting cells (APCs). Expression of PD-L1 molecules on APCs can effectively attenuate the NFAT signaling pathway in T cells. PD-L1 inhibitors can be used effectively block the PD-1/PD-L1 regulatory mechanism, thereby reversing the weakened NFAT signaling pathway. After being pretreated with APC, the small molecule is co-cultured with T cells, then the expression of luciferase was detected to indirectly reflect the activation of the NFAT pathway in T cells.
The PD1/PD-L1 NFAT detection kit was purchased from BPS Biosciences. Birght-Glo reagent was purchased from Promega. Nivo multi-label analyzer (PerkinElmer).
The TCR Activitor/PD-L1 CHO cells with a growth confluence of 80% were plated into the plate at 35,000 cells per well and placed in a 37° C. cell culture incubator overnight; the compounds to be tested were diluted 5-fold to the 8th concentration, from 20 μM to 0.25 nM, and the DMSO concentration was 2%, a double-well experiment was set up. The TCR Activitor/PD-L1 CHO cell supernatant was discarded, 50 μl of compound working solution was added to each well, incubated at 37° C. for 30 minutes; after the incubation was completed, 50 μL of PD-1/NFAT Reporter-Jurkat cell suspension with a concentration of 4*10^5 cells/mL was added to each well, incubated at 37° C. for 5 hours. After the incubation was completed, 100 μL Bright-Glo was added to each well, and after mixing, the chemiluminescence signal was detected by a Nivo multi-label analyzer.
as §1, with “Table 3” for “Table 1”, “PD1/PD-L1 binding.” for “PD1/PD-L1 binding”
Target sequence in this assay (Q9NZQ7 19-290): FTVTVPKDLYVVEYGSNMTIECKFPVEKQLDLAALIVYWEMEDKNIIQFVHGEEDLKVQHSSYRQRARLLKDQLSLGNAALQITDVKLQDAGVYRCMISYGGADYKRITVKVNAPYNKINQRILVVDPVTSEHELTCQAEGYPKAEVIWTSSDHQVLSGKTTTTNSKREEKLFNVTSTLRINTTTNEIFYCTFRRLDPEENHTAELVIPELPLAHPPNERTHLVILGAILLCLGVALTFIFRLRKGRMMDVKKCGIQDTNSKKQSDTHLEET

[4] = Pharmacokinetic test in C57BL/6 mice; format: in vivo; conditions: mouse, plasma, male C57BL/6 mice
Protocol: Experimental Example 4: Pharmacokinetic Test
Experimental purpose: To study the pharmacokinetics of compounds in C57BL/6 mice.
Experimental materials: C57BL/6 mice (male, 8 weeks old, body weight 25 g-30 g)
Experimental operation: The pharmacokinetic characteristics of rodents after intravenous (IV) and oral (PO) administration of compounds were tested in standard protocols. In the experiment, the candidate compounds were formulated into 1 mg/mL clear solutions, and administered to mice via a single intravenous injection and oral administration. The vehicle of intravenous and oral administration was 5% DMSO/5% polyethylene glycol 15-hydroxystearate (Solutol)/90% aqueous solution. Four male C57BL/6 mice were used in the experiment, wherein two mice were administered intravenously at a dose of 1 mg/kg, and the plasma samples were collected 0.0833, 0.25, 0.5, 1, 2, 4, 6, 8 and 24 h after administration, the other two mice were given oral gavage at a dose of 10 mg/kg, and the plasma samples were collected 0.25, 0.5, 1, 2, 4, 6, 8, and 24 h after administration. Whole blood samples within 24 hours were collected, centrifuged at 3000 g for 15 minutes, and the supernatant was separated to obtain plasma samples. Acetonitrile solution containing internal standard was added thereto to precipitate proteins, the mixture was thoroughly mixed and centrifuged to obtain the supernatant for injection. The plasma concentration was quantified by LC-MS/MS analysis method, and the pharmacokinetic parameters were calculated, such as peak concentration (Cmax), clearance (CL), half-life (T1/2), […] (Vdss), area under the drug-time curve (AUC0-last), bioavailability (F) and so on.

T1 sequence (Q9NZQ7 19-290): as above

SMILES | IC50 [1] | IC50 [2] | Maximum effect (induction fold) [3] | IC50 [3] | bioavailability ([4]; PO 10 mg/kg vs IV 1 mg/kg, read-out: Bioavailability F) | Cmax ([4]; IV 1 mg/kg, PO 10 mg/kg (route not given for Cmax), read-out: Peak concentration Cmax) | clearance ([4]; IV 1 mg/kg, read-out: Clearance CL) | half-life ([4]; IV 1 mg/kg, read-out: Half-life T1/2 (IV) (converted)) | Vd ([4]; IV 1 mg/kg, read-out: Tissue distribution Vdss) | AUC(0-t) ([4]; PO 10 mg/kg, read-out: Area under the drug-time curve AUC0-last PO)
Cc1cc(C(=O)Nc2cccc(-c3cccc(NC(=O)c4ccc(CNCCO)cn4)c3Cl)c2C)nc2c1CCN(CCO)C2 [Compound 6] | 0.0932 µM | 0.00465 µM | 3.54 induction fold | 0.0143 µM | – | – | – | – | – | –
Cc1cc(C(=O)Nc2cccc(-c3cccc(NC(=O)c4ccc(CNCCO)cn4)c3C)c2C)nc2c1CN(CCO)CC2 [Compound 2] | – | 0.0021 µM | – | – | – | – | – | – | – | –
COc1cc(C(=O)Nc2cccc(-c3cccc(-c4cnc(CN5CC(C)(O)C5)c(OC)n4)c3Cl)c2Cl)nc2c1CCN(CCO)C2 [Compound 42] | 0.00948 µM | – | 4.39 induction fold | 0.0234 µM | 61.6% | 0.26 µM | 2.2 L/h/kg | 16.4 h | 40.8 L/kg | 3.1 µM·h
Cc1cc(C(=O)Nc2cccc(-c3cccc(NC(=O)c4ccc(CNCCO)cn4)c3C)c2Cl)nc2c1CCN(C(CO)CO)C2 [Compound 11] | 0.0251 µM | 0.00454 µM | 3.81 induction fold | 0.0425 µM | – | – | – | – | – | –
Cc1cc(C(=O)Nc2cccc(-c3cccc(Nc4nc(C(F)F)nc5cc(CN6CC[C@@H](O)C6)cnc45)c3C)c2Cl)nc2c1CCN(CC(=O)O)C2 [Compound 23] | 0.00022 µM | 0.00368 µM | 4.84 induction fold | 0.0184 µM | – | – | – | – | – | –
Cc1cc(C(=O)Nc2cccc(-c3cccc(NC(=O)c4ccc(CNCCO)cn4)c3C)c2Cl)nc2c1CCN(C1CCC(O)CC1)C2 (stereo not shown) [Compound 15] | 0.0293 µM | 0.00886 µM | 3.80 induction fold | 0.0339 µM | – | – | – | – | – | –
Cc1c(NC(=O)c2ccc(CNCCO)cn2)cccc1-c1cccc(NC(=O)c2cc(NCCO)c3c(n2)CN(CCO)CC3)c1Cl [Compound 18] | 0.0706 µM | 0.00316 µM | 3.77 induction fold | 0.0797 µM | – | – | – | – | – | –
Cc1cc(C(=O)Nc2cccc(-c3cccc(NC(=O)c4ccc(CNCCO)cn4)c3C)c2Cl)nc2c1CCN(C1CCC(C)(C(=O)O)CC1)C2 (stereo not shown) [Compound 20] | – | 0.00358 µM | 3.43 induction fold | 0.0169 µM | – | – | – | – | – | –
Cc1cc(C(=O)Nc2cccc(-c3cccc(NC(=O)c4ccc(CNCCO)cn4)c3C)c2C)nc2c1CCN(CCO)C2 [Compound 1] | 0.0625 µM | 0.00208 µM | 3.71 induction fold | 0.0349 µM | – | – | – | – | – | –
Cc1cc(C(=O)Nc2cccc(-c3cccc(NC(=O)c4ccc(CNCCO)cn4)c3C)c2C#N)nc2c1CCN(CCO)C2 [Compound 7] | – | 0.00322 µM | 3.38 induction fold | 0.0384 µM | – | – | – | – | – | –
